Data reported in EP4714468A1, “METHOD FOR ADMINISTERING MODULATOR TARGETING S1PR1 AND S1PR4” (priority 2023, dated 2024).
Read-outs that look alike come from different tables or passages of the source.

Experiments:
[1] = test system: T lymphocytes; conditions: through the suppression of T lymphocytes; cited from earlier work
[2] = in vivo
[3] = Phase 1 clinical trial, single ascending dose (SAD): safety and tolerability; set-up: species or system healthy adult males; conditions: in vivo
Description: (§1) A randomized, double-blind, placebo-controlled, step-escalation, single- and multiple-dose phase 1 clinical trial was conducted to evaluate the safety, tolerability, and pharmacokinetic/pharmacodynamic characteristics of a compound of Chemical Formula 1 (NXC736) after oral administration to healthy adult males.
The clinical trial drug product is a white, round, film-coated tablet (1 mg, 3 mg tablet) or a yellow, round, film-coated tablet (10, 20 mg, 40 mg, 60 mg, 80 mg tablet) containing the active ingredient (main ingredient) NXC736 and excipients such as diluents, binders, disintegrants, fluidizing agents and glidants. The NXC736 clinical trial drug product was manufactured as an 84 mg film-coated tablet containing 1 mg or 3 mg of the main ingredient, or a 334 mg film-coated tablet containing 10 mg, 20 mg, 40 mg, 60 mg or 80 mg of the main ingredient, and it can be stored at room temperature (1 to 30°C) in an airtight container.
In this clinical trial, a total of 42 subjects were randomly assigned to a single-administration, and a total of 39 subjects completed the study according to the clinical trial protocol. A total of 33 subjects were assigned to a repeated-administration trial, and a total of 32 subjects completed the study according to the clinical trial protocol.
(§2) The subjects were administered a single oral dose of the clinical trial drug on an empty stomach at around 9:00 AM on the day of administration after fasting for at least 10 hours. In the single-administration trial, the subjects were administered the drug and hospitalized for 8 days. After discharge, they were observed through outpatient visits until day 21. Blood was collected once before administration and at regular intervals after administration, and hematological tests were performed.

[4] = test system: lymphocytes in the peripheral blood stream; assay: Absolute lymphocyte count suppression in healthy rats; format: in vivo, SD rats
[5] = test system: Sphingosine-1 Phosphate (S1P) receptor; conditions: background art statement; cited from earlier work
[6] = Phase 1 clinical trial, repeated administration: pharmacokinetics; format: in vivo, healthy adult males
Description: as §1
(§3) The subjects fasted for at least 10 hours before the first administration. Afterwards, the clinical trial drug was administered orally twice a day for 13 days and once on day 14 in a fasting state at around 9:00 AM and 9:00 PM. The administration was performed twice a day for approximately 14 days, and the subjects were discharged on day 21 from the first administration and observed through outpatient visits until day 36. Blood was collected once before administration and at regular intervals after administration, and hematological tests were performed.

[7] = test system: alopecia areata lesion area; assay: C3H/HeJ alopecia areata mouse model; format: in vivo, C3H/HeJ mice; conditions: 3 mg/kg or 10 mg/kg oral twice a day, 12 weeks
Description: The efficacy of NXC736 on alopecia areata was evaluated by using the alopecia areata mouse model C3H/HeJ (Jackson Lab, Saeron Bio).
C3H/HeJ mice, 10 to 16 weeks of age, in which alopecia areata was not induced, were divided into two groups: a control group (sterile distilled water administration group) and an NXC736 administration experimental group, and 5 mice per group were randomly assigned. After the lymph node cells were proliferated and injected into the C3H/HeJ mice, the NXC736 administration experimental group was orally administered with 3 mg/kg or 10 mg/kg of NXC736, and the control group was orally administered with the same volume of sterile distilled water twice a day at the same time for 12 weeks. The alopecia areata lesion area and disease free ratio were measured at two-week intervals. The animal breeding room was maintained at a temperature of 23±3°C, a relative humidity of 50±10%, and a 12-hour light and dark cycle, and the experimental animals were bred in isolation boxes (ThreeShine) and were given experimental animal feed and water ad libitum.
After 12 weeks, the circular alopecia lesion area was photographed and quantified by using the Image J program (Version 1.44p).

[8] = Phase 1 clinical trial, single administration: pharmacokinetics; format: in vivo, healthy adult males
Description: as §1, §2

[9] = test system: absolute lymphocyte count (ALC); assay: Phase 1 clinical trial, repeated administration: pharmacodynamics by hematological test; format: in vivo, healthy adult males
Description: as §1, §3

[10] = test system: lymphocyte-mediated diseases; conditions: alopecia areata, inflammatory bowel disease, interstitial fibrosis and tubular atrophy, focal segmental glomerulosclerosis; Korean patents; cited from earlier work
[11] = test system: absolute lymphocyte count (ALC); assay: Phase 1 clinical trial, single administration: pharmacodynamics by hematological test; format: in vivo, healthy adult males
Description: as §1, §2

Compound: C=CC(=O)N1C[C@H](Nc2ncnc3[nH]ccc23)CC[C@@H]1C [Ritlecitinib]
- therapeutic effect on alopecia areata [1]: show a therapeutic effect on alopecia areata

Compound: CCCCCCCCCCn1cc(CCC(N)(CO)CO)nn1 [NXC736]
- serious adverse reactions [2]: No serious adverse reactions were observed
- adverse reactions (ADR) assessed as having a causal relationship with the investigational drug [3]: 12
- adverse reactions (number of events) [3]: 23
- decrease in heart rate after administration [3]: observed in most subjects administered NXC736
- difference in frequency of adverse reactions between dose groups [3]: no significant difference in the frequency of adverse reactions between the dose groups
- serious adverse reactions [3]: No serious adverse reactions were observed
- severity and outcome of adverse reactions [3]: Most adverse reactions were mild and all recovered during the trial period
- subjects with adverse reactions [3]: 9
- lymphocytes suppressed by ([4]; 5 mg/kg oral twice a day, 4 hours after the first administration): up to 78%
- lymphocytes suppressed by ([4]; 5 mg/kg oral twice a day, 4 hours after the second administration (16 hours after the first)): approximately 90%
- lymphocytes recovered to ([4]; 5 mg/kg oral twice a day, 24 hours): approximately 50%
- lymphocytes suppressed by ([4]; 10 mg/kg oral twice a day, 4 hours after the first administration): up to 83%
- lymphocytes suppressed by ([4]; 10 mg/kg oral twice a day, 4 hours after the second administration (16 hours after the first)): up to 94%
- lymphocyte suppression effect maintained ([4]; 10 mg/kg oral twice a day, up to 24 hours): about 80%
- lymphocyte suppression effect maintained ([4]; 10 mg/kg oral twice a day, up to 36 hours): about 70%
- lymphocytes suppressed by ([4]; 20 mg/kg oral once a day, 12 hours): up to 92%
- lymphocytes recovered to ([4]; 20 mg/kg oral once a day, 24 hours): 60%
- lymphocytes recovered to ([4]; 20 mg/kg oral once a day, 48 hours): 100%
- lymphocyte suppression effect, twice a day vs once a day ([4]; 5 or 10 mg/kg BID vs 20 mg/kg QD): superior when administered twice a day even at a lower dose compared to when administered once a day
- binding selectivity among S1P receptor subtypes [5]: selectively binds to S1P1 and S1P4
- accumulation at steady state compared to the first administration ([6]; repeated administration): approximately twice
- dose proportionality of Cmax,ss and AUCtau,ss ([6]; repeated administrations): confirmed
- circular alopecia lesion area compared to control group [7]: effectively reduced
- dose dependence of therapeutic effect on alopecia lesion area [7]: concentration-dependent therapeutic effect was observed
- elimination in urine [8]: hardly eliminated in urine
- half-life ([8]; human, in vivo, po, read-out: average elimination half-life (converted)): ~10 h
- Tmax ([8]; human, plasma, po, read-out: time to reach peak plasma concentrations): ~1 h
- change in ALC ([9]; 20 mg twice daily, 14-day repeated administration): ≤ 30%
- ALC reduction effect ([9]; 40 mg to 80 mg, repeated administrations twice a day): ≥ 50%
- absolute lymphocyte count decrease ([9]; 60 mg twice-daily administration group or higher, 14 days): up to 70%
- absolute lymphocyte count after administration compared to before administration ([9]; repeated administrations 40 mg): about 43%
- absolute lymphocyte count after administration compared to before administration ([9]; repeated administrations 60 mg): about 32%
- absolute lymphocyte count after administration compared to before administration ([9]; repeated administrations 80 mg): about 36%
- treatment of lymphocyte-mediated diseases in animal experiments [10]: effectively treat
- change in ALC ([11]; single administration 1 mg): 16%
- change in ALC ([11]; single administration 3 mg): 27%
- change in ALC ([11]; single administration 10 mg): 27%
- change in ALC ([11]; single administration 20 mg): 25%
- absolute lymphocyte count after administration compared to before administration ([11]; single administration 40 mg): about 68%
- absolute lymphocyte count after administration compared to before administration ([11]; single administration 80 mg): about 54%
